{
  "source": "patent US20240108598A1",
  "about": "“Danegaptide for Use in the Treatment or Prevention of a Kidney Disease” (CIANA THERAPEUTICS APS, priority 2021, published 2024)",
  "key": {"HK2 cells [1]": {"system": "HK2 cells", "assay": "MTT assay (cell viability)", "format": "cell-based, human", "conditions": "48 h", "protocol": "(§1) HK2 cells were cultured in low glucose (5 mM) for 48 h, prior to being serum-starved overnight and subsequently treated with TGFβ1 (10 ng/mL)±danegaptide (50 nM-1 μM) for 48 h (FIG. 1A, n=3).\nThe 3-(4,5-Dimethylthiazol-2-yl)-2,5-diphenyltetrazolium bromide (MTT) assay was performed as known in the art to assess the cytotoxic effects of danegaptide on cell proliferation. HK2 cells were seeded in 96-well plates and cultured in low glucose DMEM/F12 (5 mM) for 48 h, prior to overnight serum-starvation, then subsequently stimulated for 48 h with TGFβ1 (10 ng/ml)±danegaptide (50-1000 nM). Colourmetric measurement of formazan production corresponds to the number of viable cells."}, "primary hPTECs": {"system": "primary hPTECs", "assay": "qPCR of cell cycle and reno-protective marker mRNA", "format": "cell-based, human", "conditions": "12 h", "protocol": "Primary hPTECs were cultured in low (5 mM) glucose±TGFβ1 (10 ng/mL)±danegaptide (100 nM) for 12 h. […] Danegaptide (100 nM) negated the increase in p16, p21, cyclinD1 (▴▴▴P<0.001; mean±SEM, n=3) and partly reversed the TGFβ1-evoked change in Klotho.\nTo determine if danegaptide can negate hemichannel-mediated regulation of common cell cycle and reno-protective markers, hPTECs were incubated with TGFβ1 (10 ng/mL)±danegaptide (100 nM) for 12 h and expression of candidate gene mRNA assessed through qPCR analysis.\nRNA was extracted using an RNeasy mini kit (QIAGEN) and reverse transcribed (Invitrogen). Real-time PCR (SYBR GreenER, Invitrogen) was performed using a StepOne Plus instrument (Applied Biosystems Inc, Foster City, CA). cDNA expression was obtained by comparing to a standard curve of serially-diluted cDNA. The following primers were used: p16 (forward: […], reverse: […]), p21 (forward: […], reverse: […]), cyclinD1 (forward: […], reverse: […]), Klotho (forward: […], reverse: […]). Melt curve analysis confirmed primer specificity and checked for potential contamination."}, "HK2 cells [2]": {"system": "HK2 cells", "assay": "Lactate dehydrogenase (LDH) release assay", "format": "cell-based", "conditions": "48 h", "protocol": "as §1\nThe release of lactate dehydrogenase (LDH) into media as a result of plasma membrane damage is commonly used to evaluate cell death or cytotoxicity. HK2 cells were seeded in 96-well plates and cultured in low glucose DMEM/F12 (5 mM) for 48 h, prior to overnight serum-starvation. Cells were then stimulated for 48 h with TGFβ1 (10 ng/ml)±danegaptide (50-1000 nM). The LDH-cytotoxicity assay kit II (Abcam) was used to quantify LDH according to the manufacturer's instructions."}, "HK2 cells [3]": {"system": "HK2 cells", "assay": "Transepithelial electrical resistance (TER)", "format": "cell-based, human", "conditions": "HK2 cells on transwell inserts", "protocol": "Primary hPTECs were cultured in low (5 mM) glucose±TGFβ1 (10 ng/mL)±danegaptide (100 nM) for 48 h. Expression of E-cadherin (ECAD), N-cadherin (NCAD) and vimentin (panel A), and Claudin-2 and Zonula Occludens (ZO-1) and b-catenin (panel B) were assessed via western blotting. TGFβ1 reduced E-cadherin, Claudin-2 and ZO-1 expression and increased N-cadherin and vimentin expression (**P<0.01, ***P<0.001; mean±SEM, n=3). Effects were partially or completely reversed by danegaptide (100 nM; ▴P<0.05 and ▴▴▴P<0.001; mean±SEM, n=3). Representative blots for each protein are shown, with expression normalised by re-probing for α-tubulin as a loading control. In panel C, transepithelial electrical resistance (TER) assessed the consequence of altered adherens & tight-junction protein expression on epithelial integrity. HK2 cells were cultured in low (5 mM) glucose on transwell inserts and transepithelial resistance measured.\nTo determine if danegaptide can negate TGFβ1-mediated changes in adherens and tight junction proteins, hPTECs were incubated with TGFβ1 (10 ng/mL)±danegaptide (100 nM) for 48 h and expression of candidate proteins assessed by Western blotting. […] Bands were visualised using an OdysseyFC and semi-quantified using ImageStudio (v5.2, LI-COR). […]"}, "[4]": {"conditions": "TGFβ1 10 ng/mL + danegaptide 50 nM"}, "[5]": {"conditions": "TGFβ1 10 ng/mL + danegaptide 100 nM"}, "[6]": {"conditions": "TGFβ1 10 ng/mL + danegaptide 1 μM"}},
  "data": [
    {"molecule": "NCC(=O)N1C[C@H](NC(=O)c2ccccc2)C[C@H]1C(=O)O", "note": "[danegaptide, (2S,4R)-1-(2-aminoacetyl)-4-benzamidopyrrolidine2-carboxylic acid]", "values": [
      {"measurement": "cell viability (MTT) as compared to control", "setting": "HK2 cells [1]; [4]", "result": "104.1±2.2", "unit": "%"},
      {"measurement": "cell viability (MTT) as compared to control", "setting": "HK2 cells [1]; [5]", "result": "93.4±1.6", "unit": "%"},
      {"measurement": "cell viability (MTT) as compared to control", "setting": "HK2 cells [1]; [6]", "result": "89.3±3.7", "unit": "%"},
      {"measurement": "cell viability (MTT) as compared to control", "setting": "HK2 cells [1]; danegaptide alone 50 nM", "result": "95.2±7", "unit": "%"},
      {"measurement": "cell viability (MTT) as compared to control", "setting": "HK2 cells [1]; danegaptide alone 100 nM", "result": "103±5.7", "unit": "%"},
      {"measurement": "cell viability (MTT) as compared to control", "setting": "HK2 cells [1]; danegaptide alone 1 μM", "result": "96.6±5.3", "unit": "%"},
      {"measurement": "Klotho mRNA expression, of control", "setting": "primary hPTECs; [5]", "result": "59.9±11.7", "unit": "%"},
      {"measurement": "cyclinD1 mRNA expression, of control", "setting": "primary hPTECs; [5]", "result": "132.9±15.0", "unit": "%"},
      {"measurement": "p16 mRNA expression, of control", "setting": "primary hPTECs; [5]", "result": "193±18.5", "unit": "%"},
      {"measurement": "p21 mRNA expression, of control", "setting": "primary hPTECs; [5]", "result": "142.2±6.2", "unit": "%"},
      {"measurement": "LDH release compared to control", "setting": "HK2 cells [2]; [4]", "result": "106.4±11.6", "unit": "%"},
      {"measurement": "LDH release compared to control", "setting": "HK2 cells [2]; [5]", "result": "113.9±15.6", "unit": "%"},
      {"measurement": "LDH release compared to control", "setting": "HK2 cells [2]; [6]", "result": "113.2±4.3", "unit": "%"},
      {"measurement": "LDH release compared to control", "setting": "HK2 cells [2]; danegaptide alone 50 nM", "result": "104.4±4.3", "unit": "%"},
      {"measurement": "LDH release compared to control", "setting": "HK2 cells [2]; danegaptide alone 100 nM", "result": "95.3±4.7", "unit": "%"},
      {"measurement": "LDH release compared to control", "setting": "HK2 cells [2]; danegaptide alone 1 μM", "result": "92.6±3.3", "unit": "%"},
      {"measurement": "transepithelial resistance", "setting": "HK2 cells [3]; [5]", "result": "36±2.08 Ω·cm2"}
    ]},
    {"molecule": "TGFβ1: Recombinant hTGFβ1 (Sigma); pro-fibrotic cytokine used to stimulate the cells [reference compound]", "values": [
      {"measurement": "cell viability (MTT) as compared to control", "setting": "HK2 cells [1]; TGFβ1 10 ng/mL alone", "result": "101.9±11.7", "unit": "%"},
      {"measurement": "Klotho mRNA expression, of control", "setting": "primary hPTECs; TGFβ1 10 ng/mL alone", "result": "43.3±3.8", "unit": "%"},
      {"measurement": "cyclinD1 mRNA expression, of control", "setting": "primary hPTECs; TGFβ1 10 ng/mL alone", "result": "253.2±7.7", "unit": "%"},
      {"measurement": "p16 mRNA expression, of control", "setting": "primary hPTECs; TGFβ1 10 ng/mL alone", "result": "358.8±21.1", "unit": "%"},
      {"measurement": "p21 mRNA expression, of control", "setting": "primary hPTECs; TGFβ1 10 ng/mL alone", "result": "221.8±12.9", "unit": "%"},
      {"measurement": "LDH release compared to control", "setting": "HK2 cells [2]; TGFβ1 10 ng/mL alone", "result": "109.3±11.3", "unit": "%"},
      {"measurement": "transepithelial resistance", "setting": "HK2 cells [3]; TGFβ1 10 ng/mL alone", "result": "10±1.53 Ω·cm2"}
    ]}
  ]
}
